For one assay, the system named is H1703. Description: Apoptotic effects in cancer cells overexpressing Dvl, H1703. Format: cell-based, human. As to the method:
(§1) Compounds were tested for apoptotic effects to represent the inhibitory effects of compounds on interaction between the PDZ domain of the Dishevelled (Dlv) protein and the Fz protein (Wnt receptor). Cell lines H513 and H1703 were utilized, with test compounds (compound numbers from Tables 1 and 2) being applied at 0 (control), 10 μM and 100 μM.

The test system of assay [1] is human Dishevelled (Dvl) protein. Description: Binding to Dishevelled protein.
For assay [2], the system named is human lung cancer (H460) cells. Description: Growth suppression and apoptosis in lung cancer H460 cells (other tests). Format: cell-based. The note with it: 100 μM, after 4 days.
Another assay concerns H513. Description: Apoptotic effects in cancer cells overexpressing Dvl, H513. Format: cell-based, human. Conditions: for apoptosis, %: H513, 1 day. Here is the method: as §1
Assay [3] has as its system Wnt/beta-Catenin signaling. Description: Inhibition of Wnt/beta-Catenin signaling in H1703. It is filed as cell-based. The note with it: human lung cancer cell line H1703.
The subject of assay [4] is human lung cancer (H1073) cells. Description: Growth suppression and apoptosis in lung cancer cells (other tests). It is filed as cell-based. Conditions: 100 μM, after 4 days.
Assay [5] relates to Wnt/beta-Catenin signaling. Description: Inhibition of Wnt/beta-Catenin signaling in A549. It is filed as cell-based. The note with it: human lung cancer cell line A549.
In assay [6] the test system is human melanoma (LOX) cells. Description: Growth suppression and apoptosis in melanoma cells (other tests). Conditions: 100 μM, after 4 days. Format: cell-based.

Turning to `CCCCC(O)c1cc2cc(C)c(C(=O)O)cc2n1CCc1ccccc1` (stereo not shown) [Compound 1, [2-(1-Hydroxypentyl)-5-methyl-1-(2-phenylethyl)]indole-6-carboxylic acid], the “apoptosis, %” value came out at 6.2% in the assay with H1703 (10 μM, H1703, 4 days) and 38.7% in the assay with H1703 (100 μM, H1703, 4 days).
On to `CCCCCc1c(CO)c2cc(C)c(C(=O)[O-])cc2n1CCc1ccccc1.[Na+]` [Compound 6, Sodium [3-hydroxymethyl-2-(1-pentyl)-1-(2-phenylethyl)-5-methyl]indole-6-carboxylate], for which the “apoptosis, %” value is 8.2% in the assay on H1703 (10 μM, H1703, 1 day); 34.0% in the assay with H1703 (100 μM, H1703, 1 day); 14.3% with H513 (10 μM); 52.5% in the assay on H513 (100 μM). Also, the “binding to human Dishevelled (Dvl) protein” value in assay [1] is reported as “bind”. Further, the “suppress cancer cell growth and induce apoptosis, % of the population” value in assay [2] is “about 20%”; with H513 (100 μM, after 4 days, human mesothelioma (H513) cells) it was “over 50%”; in assay [4], “up to 85.2%”; in assay [6] it was 35%. Also, the “inhibition of Wnt/beta-Catenin signaling” value in assay [3] and in assay [5] was “inhibit” each time.

Values taken from patent publication US7601750B2, “Small molecule inhibition of a PDZ-domain interaction” (The Regents of the University of California, priority 2003, dated 2009).
